We go through 13 molecules from patent US7745489B2, “Compositions and methods for inhibition of phospholipase A2 mediated inflammation” (The Regents of the University of California, priority 2002, dated 2010).

Structures are written as SMILES. Several values for one entry are separate records, joined by “and”; a condition that tells them apart may be missing. Equal entries are not always repeated. Entries after “also recorded” stand apart in the source; their conditions may differ. Where two headings read alike, the source gives them in different places.

The target in data set [1] is T1, iPLA2 (Homo sapiens, UniProt O60733).
T1 sequence (O60733 1-806): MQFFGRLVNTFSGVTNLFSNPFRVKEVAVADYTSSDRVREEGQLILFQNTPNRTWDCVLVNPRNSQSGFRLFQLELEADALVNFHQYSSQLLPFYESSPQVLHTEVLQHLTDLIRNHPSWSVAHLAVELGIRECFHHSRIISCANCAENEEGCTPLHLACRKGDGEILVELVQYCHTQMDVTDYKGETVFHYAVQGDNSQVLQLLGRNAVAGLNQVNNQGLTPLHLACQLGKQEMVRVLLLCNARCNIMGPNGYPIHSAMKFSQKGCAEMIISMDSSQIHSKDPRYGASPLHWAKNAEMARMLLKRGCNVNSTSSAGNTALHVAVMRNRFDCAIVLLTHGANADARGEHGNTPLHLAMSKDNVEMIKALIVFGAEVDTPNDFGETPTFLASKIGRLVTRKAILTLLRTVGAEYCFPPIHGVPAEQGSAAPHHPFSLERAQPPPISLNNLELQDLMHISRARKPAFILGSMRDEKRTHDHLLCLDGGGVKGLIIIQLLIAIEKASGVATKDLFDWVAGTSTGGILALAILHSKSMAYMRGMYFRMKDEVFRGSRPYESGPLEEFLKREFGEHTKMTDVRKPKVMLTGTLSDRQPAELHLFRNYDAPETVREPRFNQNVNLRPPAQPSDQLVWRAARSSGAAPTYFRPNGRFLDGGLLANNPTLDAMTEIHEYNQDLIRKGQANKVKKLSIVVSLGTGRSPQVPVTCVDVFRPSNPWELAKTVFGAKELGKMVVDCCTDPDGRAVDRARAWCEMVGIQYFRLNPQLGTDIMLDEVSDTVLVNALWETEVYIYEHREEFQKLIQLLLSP
Kind of data set: iPLA2 activity mixed micelle assay, inhibition by 2-oxoamides. The format is biochemical. An excerpt: All of the data above are provided with respect to XI(50), which is the mole fraction of inhibitor in the total substrate interface required to inhibit the enzyme by 50%. Almost all inhibitors of PLA2's partition into the phospholipid surface, because they usually have a hydrophobic nature that helps them bind to the active site of the PLA2. When these inhibitors partition into the surface, an important physical effect called surface dilution comes into play. In this case, the strength of the interaction of PLA2 and an inhibitor depends not on the bulk concentration of the inhibitor (molar units), but on the surface concentration of the inhibitor (mole fraction units).
PLA2 Activity Assays: Following homoginization and centrifugation, the spinal cord supernatants were assayed for cPLA2 or iPLA2 activity using the group specific assays developed in our laboratory (Yang et al., Biochem; 269: 278-288, 1999). Briefly the cPLA2 assay conditions were: 100 μM lipid PAPC/PIP2 (97/3) doping with 1% ^14C labeled PAPC in 400 μM triton X-100 mixed micelles, 100 mM Hepes, pH 7.5, 0.08 mM CaCl2, 0.1 mg/ml BSA and 2 mM DTT. iPLA2 assay conditions were: 100 μM DPPC doping with 1% ^14C labeled DPPC in 400 μM triton X-100 mixed micelles, 100 mM Hepes, pH 7.5, 5 mM EDTA, and 1 mM ATP. The total volume for each assay is 500 μL: 200 μL lipid, 250 μL assay buffer, 50 μL sample. In each case the amount of calcium or EDTA added was adjusted to account for the addition of EDTA in the lysis buffer to give the final concentrations listed above.
Lipid preparation: Lipid was dried under N2 and lyopholized for at least one hour to remove all traces of chloroform. Lipid was then resuspended in […] and triton X-100 and micelles were created by repeated vortexing and heating in hot water until the solution clarified. Samples were incubated with substrate for one hour at 40° C. The assay was then terminated and fatty acid extracted by the modified Dole assay. The amount of radioactive fatty acid released in the assay was determined by scintillation counting. Following analysis the data for the cPLA2 assay was adjusted for contaminating iPLA2 activity as described by Yang, et al. (Yang, et al., Anal. Biochem. 269: 278-288 (1999).

Data set [2] relates to formalin induced flinching. Kind of data set: Formalin induced flinching. It is filed as in vivo, rat. The following applies: intrathecal pretreatment 10 min; result in words.
The subject of data set [3] is spontaneous movement. The following applies: rat, in vivo.
Data set [4] relates to acetic acid writhing. Kind of data set: Acetic acid writhing test, analgesic activity. It is filed as in vivo, rat. The method, then:
The acetic acid writhing test was used to assess the analgesic activity in rats (reference drug sodium acetylsalicylate, at 1 mmol/kg, 93.4%). The inhibitors were given ip and 30 min later 1 mL/100 g body weight of 0.6% acetic acid was given ip.

Data set [5] deals with T2, cPLA2 (Homo sapiens, UniProt P47712).
T2 sequence (P47712 1-749): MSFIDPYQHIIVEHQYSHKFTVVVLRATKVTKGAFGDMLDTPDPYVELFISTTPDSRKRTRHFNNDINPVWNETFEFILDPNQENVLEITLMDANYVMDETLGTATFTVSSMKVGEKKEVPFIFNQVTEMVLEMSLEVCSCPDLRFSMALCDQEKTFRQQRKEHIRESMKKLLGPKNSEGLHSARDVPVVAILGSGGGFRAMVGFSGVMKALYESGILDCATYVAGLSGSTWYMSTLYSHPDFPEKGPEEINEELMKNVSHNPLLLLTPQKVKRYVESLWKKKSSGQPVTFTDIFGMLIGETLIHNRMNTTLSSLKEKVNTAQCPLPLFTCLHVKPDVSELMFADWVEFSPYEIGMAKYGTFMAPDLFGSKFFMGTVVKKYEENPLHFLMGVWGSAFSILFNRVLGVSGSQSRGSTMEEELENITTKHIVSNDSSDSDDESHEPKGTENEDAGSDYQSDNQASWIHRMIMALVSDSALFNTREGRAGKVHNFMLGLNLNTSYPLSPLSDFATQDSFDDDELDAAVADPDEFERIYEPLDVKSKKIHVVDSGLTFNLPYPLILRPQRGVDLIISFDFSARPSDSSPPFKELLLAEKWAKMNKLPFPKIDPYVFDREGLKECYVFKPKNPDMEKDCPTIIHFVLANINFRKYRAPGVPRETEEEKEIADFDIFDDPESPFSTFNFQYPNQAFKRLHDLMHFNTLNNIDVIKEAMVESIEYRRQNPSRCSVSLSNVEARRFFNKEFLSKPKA
Nature of the data set: cPLA2 activity on TX-100/PAPC mixed micelles, inhibition by 2-oxoamides. The format is biochemical. The note with it: for Inhibition of cPLA2: result in words.

The subject of data set [6] is carrageenan-induced paw edema. Kind of data set: Rat carrageenan-induced paw edema assay, ip, acute inflammation. The format is in vivo. The following applies: after 3.5 h; for ED50: Rattus norvegicus, carrageenin paw edema test, ip. As to the method: The experiments were conducted on Fisher 344 female rats weighing 200-260 g. Acute anti-inflammatory activity was measured after 3.5 h by reduction of rat paw carrageenan edema, induced by injection of 0.1 mL carrageenan 2% (K100, commercially available) in sterilized saline intradermally into the right footpad. The examined compounds were administered intraperitoneally (ip) simultaneously. Control animals accepted only vehicle.
(Carrageenan injected into the paw causes an acute inflammation.)

For data set [7], the system named is P388D1 cells. Kind of data set: PGE2 release from stimulated P388D1 macrophages. The format is cell-based, murine. The note with it: for inhibition at 50 µM / IC50: Mus musculus; for inhibition at 50 µM: LPS 1 hour then PAF 15 min, maximal dosage tested 50 μM; for IC50: LPS 18 hr, inhibitor added 30 min prior to stimulation; for Block of PGE2 release: long-term LPS stimulation, 50 μM inhibitor, result in words. The method, then: cPLA2 and iPLA2 are expressed in macrophage cells. It was therefore of interest to determine if the PLA2 inhibitors of the invention acted on either or both of cPLA2 and iPLA2 in macrophages. To that end, P388D1 murine macrophages were maintained at 37° C. in a humidified 10% CO2 atmosphere. Cells were grown in Iscove's Modified Dulbecco's Medium (IMDM with 10% fetal calf serum (HyClone Labs, Provo Utah), 100 units/mL penicillin and 100 μg/mL streptomycin (Invitrogen, Carlsbad Calif.). Cells were routinely passaged every 2-3 days when the cells reached 75-80% confluence. Cells used for stimulation were plated at a density of 10^6 cells per well in standard 12 well tissue culture plates and were allowed to adhere overnight.
Macrophages were stimulated by treating P338D1 cells with either lipopolysaccharide (LPS) alone or LPS combined with platelet activating factor (PAF). Briefly, cells were washed twice with starvation media (IMDM containing 0.2% fetal calf serum, 100 units/mL penicillin and 100 μg/mL streptomycin) and then incubated with 1 mL of starvation media for one hour. Cells were then exposed to either 100 ng/mL LPS for 18 hours or 200 ng/mL LPS for one hour. Cells treated with 200 ng/mL LPS were then exposed to 100 nM PAF for 15 minutes. At the end of the stimulation, the media was removed from the cells, cleared of cellular debris by centrifugation and analyzed for prostaglandin E2 (PGE2) levels by enzyme-linked immunoassay (Cayman Chemical, Ann Arbor Mich.).
Inhibitor compounds were dissolved in DMSO and diluted into starvation media prior to addition to cells; the DMSO concentration was kept below 0.5% v/v in all studies. All inhibitors were added 30 minutes prior to stimulation.

Where [8] appears, read: Table 3, at 0.020 mole fraction.
Where [9] appears, read: mixed micelles TX-100 400 μM, PAPC 97 μM, PIP2 3 μM (0.6 mole %).

As usually defined, the ED50 is the midpoint of the dose-response relation. High values mean weaker potency, low ones greater potency. The term inhibition denotes the relative decrease from the control value, in per cent. Read a low inhibition as a weak effect. What is called IC50 is the concentration that inhibits the measured activity by half. A high value points to lower potency. A word on the melting point: it is the temperature of the solid-liquid transition.

`CCC/C=C\CCNC(=O)C(=O)CC` [OA23]: the “Highest Conc. (mole fraction) w/ % inhibition” value in data set [1] (setting [8]) is 0.020: 43% ± 4%.

For `O=C1O/C(=C/Br)CCC1c1cccc2ccccc12` (stereo not drawn) [BEL, bromoenol lactone], in data set [2], the “Effect on formalin induced flinching” value is “suppression”. The entries for the “Effect on spontaneous movement / normal motor function” value in data set [3] and in data set [3] (60 min) were “did have such an effect” and “suppressed spontaneous movement”, respectively.

As for `CCC/C=C\CCNC(=O)C(=O)CC` [OA24], the “Highest Conc. (mole fraction) w/ % inhibition” value in data set [1] (setting [8]) was 0.020: 60% ± 6%.

Turning to `CCC(=O)C(N)=O` [OA21], in data set [1] (setting [8]), the “Highest Conc. (mole fraction) w/ % inhibition” value is given as 0.020: 38% ± 6%.

As to `CC(=O)Oc1ccccc1C(=O)[O-].[Na+]` [sodium acetylsalicylate, reference compound], the Analgesic activity in data set [4] (reference drug at 1 mmol/kg) turned out to be 93.4%.

In the case of `COC(=O)CCCNC(=O)C(=O)CCCCc1ccccc1` [OA20], the “Inhibition of cPLA2” value in data set [5] was “do not inhibit”. Further, the “Highest Conc. (mole fraction) w/ % inhibition” value in data set [1] (Table 3, at 0.091 mole fraction) was 0.091: 55% ± 4%.

In the case of `CCCCCCCCCCC(=O)C(=O)N[C@@H](CCCC)CCC(=O)O` [OA4, (4S)-4-[(2-Oxododecanoyl)amino]octanoic acid], the melting point was in the range of 50 to 52 °C. In addition, the “XI(50) (mole fraction)” value in data set [5] (Table 2, iPLA2) is 0.009 ± 0.004 mole fraction. Also, in data set [5] (setting [9]), the “XI(50)” value is 0.009±0.004 mole fraction and 0.009 mole fraction. The “XI(50)” value in data set [5] (mixed micelles TX-100 3 mM, PAPC 1 mM, no PIP2 present) amounted to 0.0027±0.0012 mole fraction. In addition, in data set [5], the “Inhibition of cPLA2” value is “quite potent”. This molecule also had an ED50 in data set [6] of 100 µmol/kg. Also, in data set [4] (ip dose of 0.1 mmol/kg), the Analgesic activity is 63%. In addition, in data set [7], the inhibition at 50 µM is ~60%, inhibition was half-maximal at 5.8 µM (IC50) and the “Block of PGE2 release” value is on record as “completely block”.

Regarding `COc1ccc2c(c1)c(CC(=O)O)c(C)n2C(=O)c1ccc(Cl)cc1` [indomethacin, reference compound], the “% inhibition of carrageenan paw edema” value in data set [6] (reference drug at 0.011 mmol/kg) is 47%.

On to `CCC(=O)C(=O)NCCCC(=O)OC` [OA19], for which, in data set [5], the “Inhibition of cPLA2” value is on record as “no inhibitory activity; also recorded: no measurable inhibition”. In addition, the “XI(50) (mole fraction)” value in data set [1] (Table 3) was 0.0158 ± .0009 mole fraction.

For `CCNC(=O)OC[C@H](CCC(=O)OC)NC(=O)C(=O)CC` [OA26], the “XI(50) (mole fraction)” value in data set [5] (Table 4, cPLA2) was found to be 0.028 ± 0.017 mole fraction; in data set [1] (Table 4) it was 0.018 ± 0.002 mole fraction. The “Inhibition of cPLA2” value in data set [5] was “does”.

On to `CCNC(=O)C(=O)CC` [OA22], for which, in data set [1] (setting [8]), the “Highest Conc. (mole fraction) w/ % inhibition” value is 0.020: 31% ± 6%.

For the molecule `CCC(=O)C(=O)N[C@H]1CCC(=O)OC1` [OA25], in data set [5] (Table 4, cPLA2, at 0.091 mole fraction), the “Highest Conc. (mole fraction) w/ % inhibition” value is given as “cPLA2: 0.091: 41% iPLA2: N/A”. In addition, in data set [5], the “Inhibition of cPLA2” value is “fairly poor inhibitor”. Also, the “XI(50) (mole fraction)” value in data set [1] (Table 4) is “C PLA2: N.D. I PLA2: 0.0142 ± 0.0004 mole fraction”.

As for `CCCCCCCCCCCCCCC(=O)C(=O)NCCCC(=O)O` [OA1, 4-[(2-oxohexadecanoyl)amino]butanoic acid], the “XI(50) (mole fraction)” value in data set [5] (Table 2, iPLA2) was found to be 0.017 ± 0.009 mole fraction. The “XI(50)” value in data set [5] (setting [9]) is recorded as 0.017±0.009 mole fraction. The molecule also came in with an ED50 in data set [6] of 10 µmol/kg. Also, the Analgesic activity in data set [4] (ip dose of 0.01 mmol/kg) is 92.7%. Also, in data set [7], the inhibition at 50 µM was ~60%, the IC50 was 7.8 µM and the “Block of PGE2 release” value is recorded as “completely block”.
